Assay results published in the supplement of paper PMC10307832.

How the values were obtained:
Assay in all cases: relative viability (nuclei count vs DMSO), 5 days (fraction); higher = more cells survive
Dinaciclib + Vorinostat = compound: CCc1cnn2c(NCc3ccc[n+]([O-])c3)cc(N3CCCC[C@H]3CCO)nc12 [Dinaciclib] + O=C(CCCCCCC(=O)Nc1ccccc1)NO [Vorinostat] (partner 1 µM)
Outline: (§1)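 Nuclei were stained with Hoechst during a one-step fixation (final 0.05% Triton X-100, 1% formaldehyde, 1 ug/ml Hoechst) carried out 5 days after dosing, then counted on 4× images. The cells, lung cancer lines in 1536-well plates, had been dosed by pin tool the day after seeding with one drug alone or a fixed anchor-drug dose plus five library-drug doses (not always all listed) in √10 steps. Relative viability is the nuclei count in treated wells divided by that in vehicle wells, and each value is the median of duplicate plates.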

Dinaciclib + OSI-027 = compound: CCc1cnn2c(NCc3ccc[n+]([O-])c3)cc(N3CCCC[C@H]3CCO)nc12 [Dinaciclib] + COc1cccc2cc(-c3nc([C@H]4CC[C@H](C(=O)O)CC4)n4ncnc(N)c34)[nH]c12 [OSI-027] (partner 0.5 µM)
Outline: as §1

Dinaciclib + Trametinib = compound: CCc1cnn2c(NCc3ccc[n+]([O-])c3)cc(N3CCCC[C@H]3CCO)nc12 [Dinaciclib] + CC(=O)Nc1cccc(-n2c(=O)n(C3CC3)c(=O)c3c(Nc4ccc(I)cc4F)n(C)c(=O)c(C)c32)c1 [Trametinib] (partner 0.02 µM)
Outline: as §1

Dinaciclib + AZD7762 = compound: CCc1cnn2c(NCc3ccc[n+]([O-])c3)cc(N3CCCC[C@H]3CCO)nc12 [Dinaciclib] + NC(=O)Nc1cc(-c2cccc(F)c2)sc1C(=O)N[C@H]1CCCNC1 [AZD7762] (partner 0.2 µM)
Outline: as §1

Dinaciclib + Luminespib = compound: CCc1cnn2c(NCc3ccc[n+]([O-])c3)cc(N3CCCC[C@H]3CCO)nc12 [Dinaciclib] + CCNC(=O)c1noc(-c2cc(C(C)C)c(O)cc2O)c1-c1ccc(CN2CCOCC2)cc1 [Luminespib] (partner 0.01 µM)
Outline: as §1

Row | Cell Line | relative viability (Dinaciclib + Vorinostat; first compound 0.009487 µM) | relative viability (Dinaciclib + Vorinostat; first compound 0.03 µM) | relative viability (Dinaciclib + Vorinostat; first compound 0.09487 µM) | relative viability (Dinaciclib + Vorinostat; first compound 0.3 µM) | relative viability (Dinaciclib + OSI-027; first compound 0.009487 µM) | relative viability (Dinaciclib + OSI-027; first compound 0.03 µM) | relative viability (Dinaciclib + OSI-027; first compound 0.09487 µM) | relative viability (Dinaciclib + OSI-027; first compound 0.3 µM) | relative viability (Dinaciclib + Trametinib; first compound 0.009487 µM) | relative viability (Dinaciclib + Trametinib; first compound 0.03 µM) | relative viability (Dinaciclib + Trametinib; first compound 0.09487 µM) | relative viability (Dinaciclib + Trametinib; first compound 0.3 µM) | relative viability (Dinaciclib + AZD7762; first compound 0.009487 µM) | relative viability (Dinaciclib + AZD7762; first compound 0.03 µM) | relative viability (Dinaciclib + AZD7762; first compound 0.09487 µM) | relative viability (Dinaciclib + AZD7762; first compound 0.3 µM) | relative viability (Dinaciclib + Luminespib; first compound 0.009487 µM) | relative viability (Dinaciclib + Luminespib; first compound 0.03 µM) | relative viability (Dinaciclib + Luminespib; first compound 0.09487 µM) | relative viability (Dinaciclib + Luminespib; first compound 0.3 µM)
1 | NCI-H1993 | 0.651 | 0.281 | 0.42 | 0.308 | 0.538 | 0.57 | 0.625 | 0.6 | 0.632 | 0.419 | 0.511 | 0.479 | 0.668 | 0.364 | 0.385 | 0.396 | 0.723 | 0.472 | 0.53 | 0.474
2 | NCI-H2085 | 0.907 | 0.503 | 0.221 | 0.214 | 0.748 | 0.264 | 0.243 | 0.196 | 0.439 | 0.259 | 0.187 | 0.183 | 1.14 | 0.391 | 0.211 | 0.221 | 0.417 | 0.195 | 0.186 | 0.169
3 | NCI-H2087 | 0.753 | 0.114 | 0.12 | 0.0878 | 0.529 | 0.0975 | 0.11 | 0.0895 | 0.143 | 0.11 | 0.101 | 0.107 | 1.44 | 0.108 | 0.127 | 0.123 | 0.189 | 0.107 | 0.0516 | 0.0567
4 | NCI-H2126 | 0.817 | 0.345 | 0.176 | 0.194 | 0.784 | 0.381 | 0.251 | 0.204 | 0.53 | 0.41 | 0.165 | 0.175 | 1.13 | 0.899 | 0.29 | 0.198 | 0.873 | 0.202 | 0.201 | 0.21
5 | NCI-H2170 | 0.736 | 0.132 | 0.116 | 0.116 | 0.741 | 0.156 | 0.152 | 0.14 | 0.885 | 0.147 | 0.133 | 0.131 | 0.705 | 0.122 | 0.108 | 0.128 | 0.608 | 0.142 | 0.142 | 0.146
6 | NCI-H2342 | 0.75 | 0.685 | 0.703 | 0.323 | 0.559 | 0.532 | 0.32 | 0.315 | 0.82 | 0.847 | 0.343 | 0.31 | 0.627 | 0.572 | 0.206 | 0.225 | 0.715 | 0.511 | 0.27 | 0.255
7 | NCI-H2347 | 0.515 | 0.304 | 0.252 | 0.228 | 0.437 | 0.204 | 0.144 | 0.151 | 0.301 | 0.247 | 0.159 | 0.154 | 0.78 | 0.226 | 0.2 | 0.185 | 0.249 | 0.12 | 0.105 | 0.118
8 | NCI-H2405 | 0.813 | 0.211 | 0.217 | 0.201 | 0.625 | 0.409 | 0.226 | 0.198 | 0.676 | 0.236 | 0.233 | 0.203 | 0.539 | 0.202 | 0.193 | 0.196 | 0.688 | 0.231 | 0.193 | 0.247
9 | NCI-H3122 | 1.05 | 0.095 | 0.0953 | 0.0902 | 0.407 | 0.108 | 0.0984 | 0.114 | 0.292 | 0.102 | 0.0935 | 0.0911 | 1.07 | 0.107 | 0.0953 | 0.0953 | 0.115 | 0.122 | 0.0991 | 0.0858
10 | PC-3 [JPC-3] | 0.915 | 0.56 | 0.277 | 0.323 | 0.764 | 0.693 | 0.249 | 0.209 | 0.737 | 0.657 | 0.334 | 0.321 | 0.904 | 0.476 | 0.308 | 0.279 | 0.668 | 0.417 | 0.219 | 0.199
11 | PC-14 | 0.737 | 0.251 | 0.0426 | 0.0456 | 0.66 | 0.0841 | 0.0393 | 0.0423 | 0.412 | 0.0589 | 0.0476 | 0.0471 | 0.389 | 0.0715 | 0.0519 | 0.0512 | 0.146 | 0.0837 | 0.0681 | 0.0507
12 | RERF-LC-KJ | 0.652 | 0.373 | 0.141 | 0.135 | 0.461 | 0.177 | 0.185 | 0.182 | 0.753 | 0.22 | 0.143 | 0.152 | 1.04 | 0.498 | 0.114 | 0.155 | 0.452 | 0.195 | 0.179 | 0.208
13 | SW 900 | 0.557 | 0.33 | 0.171 | 0.143 | 0.578 | 0.103 | 0.0689 | 0.098 | 0.805 | 0.477 | 0.177 | 0.155 | 0.705 | 0.405 | 0.179 | 0.148 | 0.19 | 0.176 | 0.0768 | 0.0536
